Measured values taken from PubChem BioAssay AID179 (DTP/NCI, 2004).
Active and inactive are the calls of the source.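 Rule for the calls: active = compounds giving half or more protection of infected cells from virus-caused growth loss, again on retest; inactive = the rest.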

Test system: CEM cells HIV-1 protection, formazan growth assay
Test: NCI AIDS Antiviral Assay
Conditions: for IC50: measured here: growth of uninfected CEM cells
Summary of the method: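 CEM (human) cells, HIV-1 infected vs uninfected, 5-point dosing, formazan growth read-out. Retest threshold 50% protection.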

SMILES | EC50 | IC50 | outcome
CC1=NC(=Cc2ccc(Cl)cc2)C(=O)N1n1c(-c2ccccc2)nc2ccccc2c1=O | > 200 µM | 75.9 µM | 
COCn1c(C)c(C)c2c(=O)oc(N(C)C)nc21 | > 200 µM | 138 µM | 
O=C(O)[C@@H]1[C@H](OCc2ccccc2)[C@H](OCc2ccccc2)CN1C(=O)OCc1ccccc1 | > 200 µM | 115 µM | 
Cn1cc(C2NC(=O)c3ccccc3N2)c2ccccc21 (stereo not drawn) | > 200 µM | 0.117 µM | 
O=C(O)/C=C/c1ccc(O)cc1 | > 200 µM | > 200 µM | 
CN(C)Cc1cc(C(=O)/C=C/c2ccc(O)cc2)cc(CN(C)C)c1O |  |  | inactive
O=c1nc2cc(-c3ccccc3)[nH]c2nn1-c1c(Cl)cc(Cl)cc1Cl | > 91.2 µM | 1.17 µM | 
COc1ccc(S(=O)(=O)N(CC(=O)O)c2ccccc2)cc1 |  |  | inactive
CC12CCC3[C@@H](CC3(C)C)C(O)(CCC1=O)C2 (stereo partly drawn) | > 200 µM | > 200 µM | 
CC(=O)N1CC[N+](C)(CCCCN2c3ccccc3Sc3cc(N=[N+]=[N-])ccc32)CC1 | > 200 µM | 81.3 µM | 
Cc1ccc(C2SC(N)=Nc3c2c(C)nn3C(=O)c2ccccc2O)cc1 (stereo not drawn) | > 20 µM | 0.603 µM | 
O=C(CSc1nnc(Cc2ccccc2)o1)Nc1cccc([N+](=O)[O-])c1 | > 97.7 µM | > 97.7 µM | 
OCC1OC(n2cnc3cncnc32)C(O)C1O (stereo not drawn) |  |  | inactive
Cc1cc(=O)oc2c(C)c3oc(CBr)cc3cc12 | > 200 µM | 0.447 µM | 
O=C1CN=C(c2ccccc2)c2cc(Cl)ccc2N1 | > 26.3 µM | > 26.3 µM | 
COC(=O)C(=O)C(C(=O)C(=O)Nc1ccc(Cl)cc1C)c1nc2ccc(C(=O)c3ccccc3)cc2[nH]c1=O (stereo not drawn) |  |  | inactive
CCCC(=N\N=C(N)N)/C(C)=N/N=C(N)N | > 79.4 µM | > 79.4 µM | 
O=C(CC(=O)c1ccc(Cl)cc1)Cc1ccc2ccccc2n1 | > 11.2 µM | > 11.2 µM | 
OCC12COC(c3ccccc3)N1C(c1ccccc1)OC2 (stereo not drawn) | > 200 µM | 11.2 µM | 
c1ccc2sc(SN3CCOCC3)nc2c1 | > 10.7 µM | > 10.7 µM | 
C=C(C)C(=O)O[C@H]1C/C(CO)=C/CCC(=C)C(OC(C)=O)[C@H]2OC(=O)C(=C)[C@H]12 (stereo partly drawn) | > 200 µM | 1.05 µM | 
N=c1nc(-c2ccccc2)nc2[nH]c3c4cccc5cccc(c3nc12)c54 | > 200 µM | 67.6 µM | 
O=C(O)C1CCCCN1c1ccccc1[N+](=O)[O-] (stereo not drawn) |  |  | inactive
O=c1ssc(=Nc2ccc(Cl)cc2)n1-c1ccc(Cl)cc1 | > 200 µM | 8.91 µM | 

SMILES | EC50 | IC50 | outcome
O=Cc1ccc2c(c1)CC1(Cc3ccccc3C1)C2 | > 200 µM | 33.9 µM | 
COC(=O)c1cc2ccccc2c(CS(=O)(=O)O)c1O | > 200 µM | 56.2 µM | 
O=[P+](O)c1cccnc1 |  |  | inactive
CCCCCCCCCCSC(=O)NC |  |  | inactive
CCc1nnc(CC)n1N1C(=O)CCC1=O | > 200 µM | > 200 µM | 
CNS(=O)(=O)NN(C)S(=O)(=O)c1ccc2ccccc2c1 | > 759 µM | 110 µM | 
COc1cc2c3c(c1OC)C1(C=CC(=O)C=C1)CC3N(C(=O)OC(C)(C)C(Cl)(Cl)Cl)CC2 (stereo not drawn) |  |  | inactive
O=C1C=CC(=O)c2c(O)c3c(c(O)c21)C[C@H](O)[C@H](O)[C@@H]3O | > 269 µM | 0.389 µM | 
S=C=Nc1ccc(SSc2ccc(N=C=S)cc2)cc1 | > 13.5 µM | 11.2 µM | 
[Cl][Ni].[NH-]C(Cc1c[nH]cn1)C(=O)O (stereo not drawn) | > 100 µM | > 100 µM | 
Nc1nc(N)c2ncn(C3OC(CO)CC3F)c2n1 (stereo not drawn) | 34.7 µM | 93.3 µM | 
O=S1(=O)CCN(Cc2ccccc2)/C1=N\S(=O)(=O)c1ccc(Cl)cc1 | > 200 µM | 17 µM | 
CCCCN(Cc1ccccc1)C(=NC#N)N(Cc1ccccc1)Cc1ccccc1 | > 4.9 µM | > 4.9 µM | 
CN(C)S(=O)(=O)C(c1ccccc1)C1(O)CCCCC1 (stereo not drawn) | > 437 µM | > 437 µM | 
C[n+]1ccc(Nc2ccc(O)cc2)c2ccc(Cl)cc21 | > 603 µM | 11 µM | 
CCCc1nc(NC#N)nc(C(=O)NC23CC4CC(CC(C4)C2)C3)c1C | > 355 µM | > 355 µM | 
O=C(O)c1ccc(CS(=O)(=O)c2ccccc2)cc1 | > 912 µM | > 912 µM | 
CCOC(=O)C1Cc2ccc3c4c(ccc(c24)C1)CC(C(=O)OCC)C3 |  |  | inactive
CCc1n[nH]c(=O)n1/N=C/c1ccc(C)cc1 | > 200 µM | 158 µM | 
CC1(CC(O)(C(F)(F)F)C(F)(F)F)NC(=O)NC1=O (stereo not drawn) | > 200 µM | > 200 µM | 
CC(=O)NC(CC(C)C(C)=O)C(=O)O (stereo not drawn) | > 200 µM | > 200 µM | 
COc1cc2c(cc1OC)C1c3ccccc3C(C#N)(C2)N(C(=O)c2ccccc2)C1O (stereo not drawn) |  |  | inactive
CC(C)OCC(O)COc1cc(=O)oc2ccccc12 (stereo not drawn) | > 200 µM | > 200 µM | 
COC(=O)CC1NC(=O)C1C(C)O[Si](C)(C)C(C)(C)C (stereo not drawn) | > 603 µM | 288 µM | 

SMILES | EC50 | IC50 | outcome
COc1nc2ccc(COc3ccc(C(=O)O)cc3)cc2nc1OC | > 200 µM | 132 µM | 
C=C1C2CCC3C(CCC4C5(C)CCCC43C3OCCN3C5)(C2)C1OC(C)=O (stereo not drawn) |  |  | inactive
COC(=O)CC1NC(=O)C1C(C)(OC)OC (stereo not drawn) | 191 µM | 251 µM | 
COC(=O)[C@@]12CSC[C@]1(C(=O)OC)N[C@@H](c1ccccc1O)C2 | > 200 µM | > 200 µM | 
O=C1CCC(=O)C(C(=O)CCC(=O)Nc2ccc(Cl)cc2)C1 (stereo not drawn) |  |  | inactive
CCCCCCCCCCCCOC(=S)NCCCC |  |  | inactive
O=C(Nc1cc2c(=O)oc3ccccc3c2oc1=O)c1cccnc1 | > 100 µM | > 100 µM | 
Cc1occc1C(=S)Nc1ccc(Cl)c(C(=O)OCC(C)C)c1 | 0.0123 µM | 18.6 µM | 
Cc1c(C)c(CC(C)(COS(C)(=O)=O)COS(C)(=O)=O)c(C)c(C)c1CC(C)(COS(C)(=O)=O)COS(C)(=O)=O | > 20.9 µM | > 20.9 µM | 
CCOC(=O)/C(=C/c1ccccn1)C(=O)c1ccccc1 | > 240 µM | 12.6 µM | 
O=C(NCc1ccccc1O)c1ccc(O)cc1O | > 200 µM | 110 µM | 
COC(=O)CC(=O)C=P(c1ccccc1)(c1ccccc1)c1ccccc1 | > 347 µM | 20.4 µM | 
COc1ccc(C(=O)c2ccc(OC)c(S(=O)(=O)n3ccnc3)c2)cc1S(=O)(=O)n1ccnc1 | > 35.5 µM | 32.4 µM | 
O=C(NCCCCCCNC(=O)n1cc(F)c(=O)[nH]c1=O)NC1C(O)OC(CO)C(O)C1O (stereo not drawn) |  |  | inactive
CC(=O)Oc1cc2oc(=O)cc(C)c2cc1OC(C)=O |  |  | inactive
CCOC(=O)C1=C(NC)OC/C1=N\NC(=O)c1ccccc1O | > 93.3 µM | 14.1 µM | 
CCN1CCC(O)(c2ccccc2)C(C(=O)c2ccccc2)C1 (stereo not drawn) | > 646 µM | 33.9 µM | 
COP(=O)(OC)C(=NCc1ccccc1)NNc1ccc([N+](=O)[O-])cc1 | > 200 µM | 191 µM | 
O=C(O)C1CSC2c3ccccc3C(=O)N12 (stereo not drawn) | > 200 µM | > 200 µM | 
CCOC(C(=O)N(C)CCN(C)CCc1ccccc1)(c1ccccc1)c1ccccc1 | > 200 µM | 37.2 µM | 
COc1ccc(N2C(=O)C3CC(c4ccc(Br)cc4)c4c([nH]c5ccccc45)C3C2=O)cc1 (stereo not drawn) | > 14.5 µM | 11 µM | 
C=CCC(SC)C1=C(C)C(=O)c2ccccc21 (stereo not drawn) | > 200 µM | 110 µM | 
COc1c(Cl)cc(S(=O)O)cc1Cl |  |  | inactive
Cc1nc(-c2ccc([N+](=O)[O-])cc2)cn2c1nc1ccccc12 | 457 µM | 501 µM | 

SMILES | EC50 | IC50 | outcome
CCN(CC)Cc1c(/C=C\c2cc(OC)c(OC)c(OC)c2)ccc(OC)c1O | > 200 µM | 1.1 µM | 
CSCC1Cc2c(cc3c(c2O)C(=O)c2ccccc2C3=O)O1 (stereo not drawn) |  |  | inactive
Cc1ccc(C(=O)N2CCN(C(=O)c3ccc(C)cc3)c3ccccc32)cc1 | > 10.2 µM | 1.82 µM | 
NC(CO)Cc1cnc[nH]1 (stereo not drawn) | > 200 µM | > 200 µM | 
O=C=Nc1cc(S(=O)(=O)c2ccc(Cl)c(N=C=O)c2)ccc1Cl | > 200 µM | > 200 µM | 
Cc1cn(C(CO)OC(CO)CN(O)C2C3CC4CC(C3)CC2C4)c(=O)[nH]c1=O (stereo not drawn) | > 200 µM | > 200 µM | 
O=S1(=O)OC2(c3ccccc31)c1cc(Br)c(O)c(O)c1Oc1c2cc(Br)c(O)c1O | > 39.8 µM | 36.3 µM | 
CC(=O)NC(CCCN(Cc1ccccc1)C(=O)N(CCCl)N=O)C(=O)NCc1ccccc1 (stereo not drawn) | > 74.1 µM | 45.7 µM | 
Cc1ccccc1NCN1C(=O)S/C(=C2\C(=O)N(C)c3ccc(Br)cc32)C1=O | > 200 µM | 11.7 µM | 
CC1(C)C2CC(O)C1CCC2=O (stereo not drawn) | > 200 µM | > 200 µM | 
Nc1nc(Cl)c2[nH]c(Cl)nc2n1 | > 200 µM | 132 µM | 
NC(=O)CCC(F)(C(N)=O)C(N)=O | > 200 µM | > 200 µM | 
C=C(C)CC1(O)C(=O)C(OCC)=C1OCC (stereo not drawn) | > 200 µM | > 200 µM | 
O=C1NN(c2ccccc2)[C@@H]2CCCC[C@H]12 | > 437 µM | > 437 µM | 
O=C1C2=Cc3ccccc3OC2(O)Oc2cc(O)ccc21 (stereo not drawn) | > 200 µM | 49 µM | 
COC(COC(N)=O)C1=C(N2CC2)C(=O)C(C)=C(N2CC2)C1=O (stereo not drawn) | > 2 µM | 0.0166 µM | 
O=S(=O)(O)C1CC2NC3C4CCCC(S(=O)(=O)O)C4C(Nc4ccccc4)CC3N(c3ccccc3)C2CC1Nc1ccccc1 (stereo not drawn) | 56.2 µM | > 100 µM | 
CCCCCCCC(=O)OC(CBr)COC(=O)C(C)(C)C (stereo not drawn) | > 251 µM | 191 µM | 
O=C(OC1(c2ccccc2)OC(=O)c2ccccc21)c1ccccc1C(=O)c1ccccc1 (stereo not drawn) |  |  | inactive
CC(=O)c1ccccc1NCC(=O)Nn1cnc2ccc(S(=O)(=O)Nc3ccccc3C(C)=O)cc2c1=O | > 200 µM | > 200 µM | 
COc1cccc(N2C(=O)C3c4[nH]c5ccccc5c4C4c5ccccc5CCC4C3C2=O)c1 (stereo not drawn) | > 100 µM | > 100 µM | 
